This test concerns the target interaction between p53 and MDM2 proteins (Homo sapiens, UniProt Q00987). Nature of the test: HTRF assay of inhibition of the p53-MDM2 interaction (GST-MDM2 / biotinylated p53 peptide). In kind it is binding. Particulars: 0.02% BSA. The procedure: The ability of the compounds to inhibit the interaction between p53 and MDM2 proteins was measured by an HTRF (homogeneous time-resolved fluorescence) assay in which recombinant GST-tagged MDM2 binds to a peptide that resembles the MDM2-interacting region of p53 (Lane et al.). Binding of GST-MDM2 protein and p53-peptide (biotinylated on its N-terminal end) is registered by the FRET (fluorescence resonance energy transfer) between Europium (Eu)-labeled anti-GST antibody and streptavidin-conjugated Allophycocyanin (APC).
Test is performed in black flat-bottom 384-well plates (Costar) in a total volume of 40 uL containing: 90 nM biotinylate peptide, 160 ng/ml GST-MDM2, 20 nM streptavidin-APC (PerkinElmerWallac), 2 nM Eu-labeled anti-GST-antibody (PerkinElmerWallac), 0.2% bovine serum albumin (BSA), 1 mM dithiothreitol (DTT) and 20 mM […] (TBS) buffer as follows: Add 10 uL of GST-MDM2 (640 ng/ml working solution) in reaction buffer to each well. Add 10 uL diluted compounds (1:5 dilution in reaction buffer) to each well, mix by shaking. Add 20 uL biotinylated p53 peptide (180 nM working solution) in reaction buffer to each well and mix on shaker. Incubate at 37° C. for 1 h. Add 20 uL streptavidin-APC and Eu-anti-GST antibody mixture (6 nM Eu-anti-GST and 60 nM streptavidin-APC working solution) in TBS buffer with 0.2% BSA, shake at room temperature for 30 minutes and read using a TRF-capable plate reader at 665 and 615 nm (Victor 5, Perkin ElmerWallac).
(In general: Time-resolved FRET reads energy transfer from a long-lived donor to a nearby acceptor.)
Sequence of interaction between p53 and MDM2 proteins (Q00987 whole entry): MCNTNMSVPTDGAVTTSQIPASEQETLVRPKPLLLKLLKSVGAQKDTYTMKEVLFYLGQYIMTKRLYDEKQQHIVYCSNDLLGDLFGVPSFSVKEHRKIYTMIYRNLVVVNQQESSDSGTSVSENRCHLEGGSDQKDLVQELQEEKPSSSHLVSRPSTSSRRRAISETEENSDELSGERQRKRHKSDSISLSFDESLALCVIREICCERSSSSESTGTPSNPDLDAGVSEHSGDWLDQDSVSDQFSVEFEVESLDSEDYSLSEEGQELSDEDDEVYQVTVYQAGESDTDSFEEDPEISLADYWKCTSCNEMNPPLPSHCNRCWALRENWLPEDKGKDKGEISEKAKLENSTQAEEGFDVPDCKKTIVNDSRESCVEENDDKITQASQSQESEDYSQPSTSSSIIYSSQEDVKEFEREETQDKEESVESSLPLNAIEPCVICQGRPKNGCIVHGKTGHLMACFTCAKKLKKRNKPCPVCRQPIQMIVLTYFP
For the compound `COC(=O)C1(Oc2ccc(Cl)cc2[C@H]2CC(=S)N[C@@H](c3cc(F)ccc3C)[C@]23C(=O)Nc2cc(Cl)ccc23)CCC1` (racemic) [Example 50, racemic (2′S, 3S, 4′R)-6-chloro-4′-[5-chloro-2-(1-methoxycarbonyl-cyclobutoxy)-phenyl]-2′-(5-fluoro-2-methyl-phenyl)-6′-thioxo spiro[3H-indole-3,3′-piperidine]-2(1H)-one], the IC50 stood at 4330 nM. That is a single-digit micromolar value.
The same measure for `COc1cc(F)c(Cl)cc1[C@@H]1CC(=S)N[C@H](c2cc(F)ccc2C)[C@@]12C(=O)Nc1cc(Cl)ccc12` (racemic) [Example 62]: 1090 nM; for `CONC(=O)C(C)(C)Oc1ccc(Cl)cc1[C@H]1CC(=S)N[C@@H](c2cc(F)ccc2C)[C@]12C(=O)Nc1cc(Cl)ccc12` (racemic) [Example 73, racemic (2′S, 3S, 4′R)-6-chloro-4′-[5-chloro-2-(1-methoxycarbamoyl-1-methyl-ethoxy)-phenyl]-2′-(5-fluoro-2-methyl-phenyl)-6′-thioxo spiro[3H-indole-3,3′-piperidine]-2(1H)-one]: 607 nM.
The same measure for `Cc1ccc(F)cc1[C@@H]1NC(=S)C[C@H](c2cc(Cl)ccc2OC(C)(C)C(=O)O)[C@@]12C(=O)Nc1cc(Cl)ccc12` [Example 8, chiral (2′S, 3S, 4′R)-6-chloro-4′-[5-chloro-2-(1-hydroxycarbonyl-1-methyl-ethoxy)-phenyl]-2′-(5-fluoro-2-methyl-phenyl)-6′-thioxo spiro[3H-indole-3,3′-piperidine]-2(1H)-one]: 50 nM; for `CCC(CC)(Oc1ccc(Cl)cc1[C@H]1CC(=S)N[C@@H](c2cc(F)ccc2C)[C@]12C(=O)Nc1cc(Cl)ccc12)C(=O)NS(C)(=O)=O` [Example 24, chiral (2′S, 3S, 4′R)-6-chloro-4′-[5-chloro-2-(2-methanesulfonylamino-1,1-diethyl-2-oxo-ethoxy)-phenyl]-2′-(5-fluoro-2-methyl-phenyl)-6′-thioxo spiro[3H-indole-3,3′-piperidine]-2(1H)-one]: 22 nM.

Usually IC50 stands for the concentration at which inhibition is half-maximal. A low value points to higher potency.
